Data as given in patent publication US5977136A, “Tetrahydroquinolines as NMDA antagonists” (Glaxo Wellcome SpA, priority 1995, dated 1999).

molecular target: T1, strychnine insensitive glycine binding site located on the NMDA receptor complex (Rattus norvegicus, UniProt P35439); experiment: biochemical; details: not given
T1 construct: determined using the procedure of Kishimoto H. et al J. Neurochem 1981, 37, 1015-1024; from tissue

Row | Structure (SMILES) | Ki [nM]
1 | O=C(/C=C1\CC(C(=O)[O-])Nc2cc(Cl)ccc21)Nc1ccccc1.[Na+] (racemic) [Example 2, (+/-)(E)7-Chloro-4-Phenylcarbamoylmethylene-1,2,3,4-Tetrahydro-Quinoline-2- Carboxylic Acid Sodium Salt] | 39.8

same assay, conditions: strychnine insensitive glycine binding site; read-out: pKi (converted)

Row | Structure (SMILES) | Ki [nM]
2 | O=C(O)Cc1ccc(NC(=O)/C=C2\CC(C(=O)O)Nc3cc(Cl)cc(Cl)c32)cc1 (racemic) [Example 15, (+/-)(E)-4-(4-Carboxymethyl-Phenylcarbamoylmethylene)-5,7-Dichloro-1,2,3,4-Tetrahydro-Quinoline-2-Carboxylic Acid] | 19.1
3 | CC(=O)Nc1cccc(NC(=O)/C=C2\CC(C(=O)O)Nc3cc(Cl)cc(Cl)c32)c1 (racemic) [Example 6, (+/-)(E)-4-(3-Acetylamino-Phenylcarbamoylmethylene)-5,7-Dichloro-1,2,3,4-Tetrahydro-Quinoline-2-Carboxylic Acid] | 15.8
4 | O=C(/C=C1\CC(C(=O)[O-])Nc2cc(Cl)cc(Cl)c21)Nc1ccccc1.[Na+] (racemic) [Sodium Salt] | 6.31
5 | CC(=O)NCc1ccc(NC(=O)/C=C2\CC(C(=O)O)Nc3cc(Cl)cc(Cl)c32)cc1 (racemic) [Example 11, (+/-)(E)-5,7-Dichloro-4-[4(Acetylaminomethyl)Phenylcarbomoylmethylene]-1,2,3,4-Tetrahydro-Quinoline-2-Carboxylic Acid] | 5.01
6 | CC(C)C(=O)Nc1ccc(NC(=O)/C=C2\CC(C(=O)O)Nc3cc(Cl)cc(Cl)c32)cc1 (racemic) [Example 12, (+/-)(E)-5,7-Dichloro-4-[4(Isobutyrylamino)Phenylcarbomoylmethylene]-1,2,3,4-Tetrahydro-Quinoline-2-Carboxylic Acid] | 15.8
7 | O=C(/C=C1\CC(C(=O)O)Nc2cc(Cl)cc(Cl)c21)Nc1cccc(Cl)c1 (racemic) [Example 7, (+/-)(E)-5,7-Dichloro-4-[3-(Chloro)Phenylcarbamoylmethylene]-1,2,3,4-Tetrahydro-Quinoline-2-Carboxylic Acid] | 39.8
8 | O=C(/C=C1\CC(C(=O)O)Nc2cc(Br)cc(Br)c21)Nc1ccccc1 (racemic) [Example 21, (+/-)-(E)-5,7-Dibromo-4-Phenylcarbamoylmethylene-1,2,3,4-Tetrahydroquinoline-2-Carboxylic Acid] | 26.3
9 | O=C(/C=C1\CC(C(=O)O)Nc2cc(Cl)cc(Cl)c21)Nc1ccc(CN2CCOCC2)cc1 (racemic) [Example 14, (+/-)(E)-5,7-Dichloro-4-(4-Morpholin-4-Ylmethyl-Phenylcarbamoylmethylene)-1,2,3,4-Tetrahydro-Quinoline-2-Carboxylic Acid] | 7.94
10 | NC(=O)NCc1ccc(NC(=O)/C=C2\CC(C(=O)O)Nc3cc(Cl)cc(Cl)c32)cc1 (racemic) [Example 9, (+/-)(E)-5,7-Dichloro-4-[4(Ureidomethyl)Phenylcarbamoylmethylene]-1,2,3,4-Tetrahydro-Quinoline-2-Carboxylic Acid] | 3.98
11 | CC(C)CC(=O)Nc1ccc(NC(=O)/C=C2\CC(C(=O)O)Nc3cc(Cl)cc(Cl)c32)cc1 (racemic) [Example 19, (+/-)(E)-5,7-Dichloro-4-[4-(3-Methyl-Butyrylamino)-Phenylcarbamoylmethylene]-1,2,3,4-Tetrahydro-Quinoline-2-Carboxylic Acid] | 18.6
12 | Nc1ccc(NC(=O)/C=C2\CC(C(=O)O)Nc3cc(Cl)cc(Cl)c32)cc1 (racemic) [Example 8, (+/-)(E)-4-(4-Amino-Phenylcarbamoylmethylene)-5,7-Dichloro-1,2,3,4-Tetrahydro-Quinoline-2-Carboxylic Acid] | 15.8
13 | CC(=O)NCCc1ccc(NC(=O)/C=C2\CC(C(=O)O)Nc3cc(Cl)cc(Cl)c32)cc1 (racemic) [Example 18, (+/-)(E)-5,7-Dichloro-4-[4-(2-Acetylamino-Ethyl)Phenylcarbamoylmethylene]-1,2,3,4-Tetrahydro-Quinoline-2-Carboxylic Acid] | 12.6
14 | O=CNCc1ccc(NC(=O)/C=C2\CC(C(=O)O)Nc3cc(Cl)cc(Cl)c32)cc1 (racemic) [Example 10, (+/-)(E)-5,7-Dichloro-4-[4(Formylaminomethyl)Phenylcarbomoylmethylene]-1,2,3,4-Tetrahydro-Quinoline-2-Carboxylic Acid] | 5.01
15 | CC(C)C(=O)NCc1ccc(NC(=O)/C=C2\CC(C(=O)O)Nc3cc(Cl)cc(Cl)c32)cc1 (racemic) [Example 13] | 15.8
16 | CC(=O)Nc1ccc(NC(=O)/C=C2\CC(C(=O)O)Nc3cc(Cl)cc(Cl)c32)cc1 (racemic) [Example 5, (+/-)(E)-4-(4-Acetylamino-Phenylcarbamoylmethylene)-5,7-Dichloro-1,2,3,4-Tetrahydro-Quinoline-2-Carboxylic Acid] | 7.94
17 | NC(=O)Cc1ccc(NC(=O)/C=C2\CC(C(=O)O)Nc3cc(Cl)cc(Cl)c32)cc1 (racemic) [Example 16, (+/-)(E)-5,7-Dichloro-4-(4-Carbamoylmethyl-Phenylcarbamoylmethylene)-1,2,3,4-Tetrahydro-Quinoline-2-Carboxylic Acid] | 6.61
18 | CC(C)C(=O)NCCc1ccc(NC(=O)/C=C2\CC(C(=O)O)Nc3cc(Cl)cc(Cl)c32)cc1 (racemic) [Example 17, (+/-)(E)-5,7-Dichloro-4-[4-(2-Isobutyrylamino-Ethyl)Phenylcarbamoylmethylene]-1,2,3,4-Tetrahydro-Quinoline-2-Carboxylic Acid] | 12.6

test system: NMDA induced convulsions in mice; experiment: Inhibition of NMDA induced convulsions in the mouse (procedure of Chiamulera C et al.); format: in vivo; details: iv, read-out: ED50 (dose required to protect 50% of the animals from the convulsive action of the NMDA)
From the text: In this test the ability of the compound when administered iv to inhibit the generalized seizures induced by an intracerebroventricular injection of NMDA in mice was examined at a number of dose levels.

Row | Structure (SMILES) | ED50 [mg/kg]
19 | O=C(/C=C1\CC(C(=O)[O-])Nc2cc(Cl)cc(Cl)c21)Nc1ccccc1.[Na+] (racemic) | 1

same assay, conditions: mice, compound iv, generalized seizures induced by intracerebroventricular injection of NMDA, read-out: ED50 (dose required to protect 50% of the animals from the convulsive action of the NMDA)

Row | Structure (SMILES) | ED50 [mg/kg]
20 | O=C(/C=C1\CC(C(=O)[O-])Nc2cc(Cl)ccc21)Nc1ccccc1.[Na+] (racemic) [Example 2, (+/-)(E)7-Chloro-4-Phenylcarbamoylmethylene-1,2,3,4-Tetrahydro-Quinoline-2- Carboxylic Acid Sodium Salt] | 0.2
21 | CC(=O)Nc1ccc(NC(=O)/C=C2\CC(C(=O)O)Nc3cc(Cl)cc(Cl)c32)cc1 (racemic) [Example 5, (+/-)(E)-4-(4-Acetylamino-Phenylcarbamoylmethylene)-5,7-Dichloro-1,2,3,4-Tetrahydro-Quinoline-2-Carboxylic Acid] | 0.2
